Test results from US20260209152A1, “Substituted Hydroxystilbene Compounds and Derivatives, Synthesis and Uses Thereof” (Kynan Duke IP, LLC, priority 2019, published 2026).
Several values for one entry are separate records, joined by “and”; a condition that tells them apart may be missing. Equal values may be shown once. Read-outs that look alike come from different tables or passages of the source.

Assays:
[1] = system: IL-8 release from IL-17A and TNFα-induced primary human keratinocytes; test: Keratinocyte IL-8 release (assay number 1250); assay type: cell-based; conditions: for EC50 / Emax: Homo sapiens, Keratinocyte; for Max Eff.: IL-8 (1250): highest effect as percentage of control maximum effect; for Emax: read-out: maximum efficacy, IL-8 release
Protocol: Inhibition of IL-8 release from IL-17A and TNFα-induced primary human keratinocytes LEO Pharma Open Innovation assay number 1250 openinnovation.leo-pharma.com
The inflammatory skin disease psoriasis is characterized by cytokines IL-17A and TNFα. In the present assay, primary human keratinocytes are stimulated with a mixture of these cytokines, and the release of IL-8 (also called CXCL8) is measured in the culture supernatant by proximity homogenous time-resolved fluorescence (HTRF).
• Detach the cells as described above. • Resuspend pellet in 10 ml EpiLife Medium with HKGS Kit but without hydrocortisone • Filter the cells though a 37 µm strainer. • Count cells using a cell counter. • Seed Human Epidermal Keratinocytes, adult (HEKa) cells in 384-well view plates 3500 c/w/40 μL. Use cell media with supplement but without hydrocortisone as assay medium. • Place the plates with lids on in a humidity chamber with lid (24.5×24.5 cm box added H2O in the bottom). • Incubate plates over night at 37° C., 5% CO2/95% air.
• Prepare compound-containing source plate, i.e. titrations in DMSO to be transferred to the assay plate. • Empty the assay plate, and re-add 25 μL assay medium. • Add 75 nL compounds and controls from the source plate to the assay plate (with cells). • Add 25 μL assay medium and incubate for 2 hours. • Add 25 μL stimulation mix in assay medium (recombinant human interleukin 17A and Tumor necrosis factor-alpha) to give a final concentration of 10 ng/mL of both cytokines. • Incubate plates at 37° C., 5% CO2/95% air for 3 days.
• Remove plates from incubation and equilibrate to room temperature for 30 minutes. • Transfer 2 μL supernatant to white proxi 384-well plates for IL-8 detection. • Add 2 μL assay medium • Prepare IL-8 HTRF mix (according to manufactory protocol) and add 2 μL pr well. • Seal and incubate for 3 hours and read fluorescence in a plate reader.
IL-8 concentration in the supernatant is measured using homogeneous time-resolved fluorescence resonance (TR-FRET). The assay is quantified by measuring fluorescence at 665 nm (proportional to IL8 concentration) and 620 nm (control). A ratio 665/620*1000 is calculated as a representation of the amount of IL-8 in the supernatant.

[2] = Cell viability in keratinocyte CCL2 assay (assay number 1243); assay type: cell-based, human; conditions: human
Source text: (§1) • 1. Determination of inhibition of CCL2 release from IL-4, IL-13, IL-22 and IFN-γ-stimulated primary human keratinocytes [assay number 1280] and determination of the effect on cell viability [assay number 1243]. • 2. Determination of inhibition of IL-8 release from IL-17A and TNFα-induced primary human keratinocytes [assay number 1250] and determination of the effect on cell viability [assay number 1244]. • 3. Determination of inhibition of IL-17A secretion from human PBMC stimulated with antiCD3/antiCD28-coated beads [assay number 1321] and determination of the effect on cell viability [assay number 1322]. • 4. Determination of inhibition of IL-4 and IL-2 secretion from human CD4-positive T-cells stimulated with antiCD2/antiCD3/antiCD28-coated beads [assay number 1297, 1298] and determination of the effect on cell viability [assay number 1299].

[3] = system: primary human keratinocytes; test: as above; assay type: cell-based; conditions: Homo sapiens
Source text: as §1

[4] = Cell viability in PBMC IL-17 assay (assay number 1322); assay type: cell-based, human; conditions: human
Protocol: (§2) The inflammatory skin disease psoriasis is characterized by cytokines IL-17A and TNFα. In the present assay, human peripheral blood mononuclear cells (PBMC) are stimulated with beads coated with antibodies against CD3 and CD28 to activate the T-cell receptor, and stimulated with IL-23 to promote T-helper17 activity. The cells are incubated for three days, then the secreted level of IL-17A is measured in the culture supernatant using AlphaLISA and the amount of living cells is measured by addition of resazurin (PrestoBlue®) to identify compounds that inhibit cell proliferation or viability. […] Compounds which inhibit IL-17A secretion may be expected to have efficacy in psoriasis.
(§3) • IL-17A concentration in the supernatants is measured using an alphaLISA kit (Perkin Elmer, cat no. AL219F). • Pretest to find optima dilution of samples: Test 5 μL supernatant from control wells and run IL-17A alphaLISA assay with only 2 hours of incubation. • When data are available, remove assay plates from incubation and equilibrate to room temperature for 30 minutes. • Transfer 5 μL or corrected amounts of supernatant to a 384-proxy plate • Add 5 μL alphaLISA acceptor beads. • Incubate 1 hour at room temperature • Add 5 μL donor beads • Incubate overnight at room temperature protected from light. • Add 7 μL PrestoBlue reagent (resazurin)/well to the assay plate and incubated for 2-4 hours at 37° C./5% CO2. The fluorescence in the wells is measured (Ex615/Em 535).
(§4) The level of living cells in the wells is measured by the addition of PrestoBlue® and the conversion of Resazurin to Resorufin (fluorescent) in living cells is measured.
(§5) The effect of the test compounds on viability/proliferation is normalized to the PrestoBlue signal in the negative control wells treated with a toxic compound, Terfenadine.

human PBMC = test: as above; assay type: cell-based; conditions: Homo sapiens
Protocol: as §2, §3, §4, §5

Kidney A-498 = test: CellTiter Glo cell viability assay; assay type: cell-based, human
How it was run: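 A498 human kidney cancer cells were seeded in 96-well plates in quadruplicate at 1.7*10^3 cells/well and exposed to serial dilutions of test compound. Viability was read with the Promega CellTiter Glo Luminescence assay on a Thermo Scientific Varioskan LUX plate reader. The half-maximal inhibitory concentration was obtained by nonlinear regression in GraphPad Prism 7.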

[5] = inhibition of IL-8 release, IL-17A and TNFα-induced keratinocytes, read-out: Abs EC50: IL-8 (1250)
[6] = maximum reduction of cell viability in CCL2 assay, read-out: Max Eff.: Viab (1243)
[7] = Keratinocyte, cell viability in CCL2 assay, read-out: Abs EC50: Viab (1243)
[8] = maximum reduction of cell viability in PBMC IL-17 assay, read-out: Max Eff.: Viab (1322)
[9] = cell viability in PBMC IL-17 assay, read-out: Abs EC50: Viab (1322)
[10] = Homo sapiens, A498, 72 h, 3 Days of treatment, 18 2-fold dilutions 5-0.00003 μM, read-out: Average IC50
[11] = Homo sapiens, A498, 72 h, Table 4: 3 Days of treatment, 18 2-fold dilutions 5-0.00003 μM, Average (1, 8) or single Exp A-D, read-out: IC50
[12] = Homo sapiens, A498, A-498/HTB-44, 11 dilutions 3-0.00001 μM, Table 6, read-out: IC50
[13] = Homo sapiens, A498, Table 5A: 11 dilutions 3-0.00001 μM, average of experiments, read-out: IC50 average
[14] = read-out: EC50, inhibition of IL-8 release
[15] = keratinocyte CCL2 assay, read-out: maximum reduction of cell viability
[16] = keratinocyte CCL2 assay, read-out: EC50, cell viability
[17] = Homo sapiens, A498, Table 5A: 11 dilutions 3-0.00001 μM, single experiments Exp E-K, read-out: IC50

Row | Compound | EC50 [1, 5] | Max Eff.: IL-8 (1250) [1] | cytotoxicity [2, 6] | EC50 [3, 7] | cytotoxicity at 3 days [4, 8] | EC50 (human PBMC; [9]) | IC50 (Kidney A-498; [12]) | IC50 (Kidney A-498; [13]) | IC50 (Kidney A-498; [17]) | also measured
1 | COc1cc(/C=C/c2cc(O)cc(OC)c2CC=C(C)C)ccc1O [Compound 1, (E)-3-(4-hydroxy-3-methoxystyryl)-5-methoxy-4-(3-methylbut-2-en-1-yl)phenol] | 80 nM | 94% | 77% | 202 nM | 50% | 5000 nM | 1070 nM | 1140 nM |  | IC50 (Kidney A-498; [10]): 2810 nM; IC50 (Kidney A-498; [11]): 109 nM
2 | CCOc1cc(O)cc(/C=C/c2ccc(O)c(OC)c2)c1CC=C(C)C [Compound 8, (E)-3-Ethoxy-5-(4-hydroxy-3-methoxystyryl)-4-(3-methylbut-2-en-1-yl)phenol] | 37 nM | 107% | 99% | 235 nM | 57% | 582 nM | 401 nM | 360 nM |  | IC50 (Kidney A-498; [10]): 329 nM; IC50 (Kidney A-498; [11]): 10.3 nM; Fold IC50 (Kidney A-498; IC50 of 1 [KYN-001] vs 8 [KYN-119], 3 Days): 8.5; IC50 (Kidney A-498; Table 5A: 11 dilutions 3-0.00001 μM, average of experiments, read-out: IC50 average): 430 nM
3 | CCOc1cc(O)cc(/C=C/c2ccc(O)c(O)c2)c1CC=C(C)C [Compound 20, (E)-4-(3-Ethoxy-5-hydroxy-2-(3-methylbut-2-en-1-yl)styryl)benzene-1,2-diol] | 321 nM | 93% | 61% | 442 nM | 47% | 5000 nM | 620 nM |  |  | 
4 | COc1cc(/C=C/c2cc(O)cc(OC)c2CC=C(C)C)ccc1NC=O [Compound 27, (E)-N-(4-(5-hydroxy-3-methoxy-2-(3-methylbut-2-en-1-yl)styryl)-2-methoxyphenyl)formamide] | 46 nM | 75% |  | 41 nM | 52% | 5000 nM | 642 nM | 728 nM |  | EC50 [1, 14]: 46 nM; Emax [1]: 75%; cytotoxicity [2, 15]: 67%; EC50 [3, 16]: 41 nM
5 | CCOc1cc(O)cc(/C=C/c2ccc(NC=O)c(OC)c2)c1CC=C(C)C [Compound 28, (E)-N-(4-(3-Ethoxy-5-hydroxy-2-(3-methylbut-2-en-1-yl)styryl)-2-methoxyphenyl)formamide] | 44 nM | 85% |  | 124 nM |  | 659 nM | 198 nM |  | 100 to 1000 nM | reduction of IL-8 release, in words [1]: medium potency reduction of IL-8 release; EC50 [1, 14]: 44 nM; Emax [1]: 85%; cytotoxicity [2, 15]: 68%; EC50 [3, 16]: 124 nM; cytotoxicity at 3 days ([4]; PBMC IL-17 assay, read-out: maximum reduction of cell viability): 54%; EC50 (human PBMC; PBMC IL-17 assay, read-out: EC50, cell viability): 659 nM; IC50 (Kidney A-498; Table 5A: 11 dilutions 3-0.00001 μM, single experiments Exp E-K, read-out: IC50): 180 nM and 181 nM
6 | COc1cc(/C=C/c2cc(O)cc(OC)c2CC=C(C)C)ccc1NC(=O)CN [Compound 31, (E)-2-amino-N-(4-(5-hydroxy-3-methoxy-2-(3-methylbut-2-en-1-yl)styryl)-2-methoxyphenyl)acetamide] | 364 nM | 105% | 86% | 431 nM | 32% | 5000 nM |  |  | > 3000 nM | 
7 | CCOc1cc(O)cc(/C=C/c2ccc(NC(=O)C(=O)O)c(OC)c2)c1CC=C(C)C [Compound 35, (E)-2-((4-(3-Ethoxy-5-hydroxy-2-(3-methylbut-2-en-1-yl)styryl)-2-methoxyphenyl)amino)-2-oxoacetic acid] | 2950 nM | 77% | 30% | 5000 nM | 18% | 5000 nM |  |  | > 3000 nM | 
